In this assay the test system is Mus musculus. The assay can be described thus: Analgesic activity against acetic acid-induced Kunming writhing mouse model assessed as inhibition of writhing at 10 mg/kg, sc pretreated with compound for 15 mins followed by acetic acid addition and measured after 15 mins relative to control. As to conditions: 0.5 h, time 30 min. It is filed as functional. For orientation: In writhing tests, fewer writhes than in controls are read as antinociception.

Structures are written as SMILES.

As usually defined, the inhibition in vivo is the drop in the measured response relative to a control, in per cent.

As to `CCN1C[C@]2(OC(=O)c3ccccc3NC(=O)c3cccc(C#N)c3)CC[C@H](OC)[C@]34C1[C@H](C[C@H]23)[C@@]1(O)C[C@H](OC)[C@H]2C[C@@H]4[C@]1(O)[C@H]2OC`, the inhibition in vivo at 10 mg/kg stood at 10.7%.
The value for `CCN1C[C@]2(OC(=O)c3ccccc3NC(=O)c3cccc(OC)c3)CC[C@H](OC)[C@]34C1[C@H](C[C@H]23)[C@@]1(O)C[C@H](OC)[C@H]2C[C@@H]4[C@]1(O)[C@H]2OC` was 0%; that for `CCN1C[C@]2(OC(=O)c3ccccc3NC(=O)c3ccccc3F)CC[C@H](OC)[C@]34C1[C@H](C[C@H]23)[C@@]1(O)C[C@H](OC)[C@H]2C[C@@H]4[C@]1(O)[C@H]2OC` was 17.7%; that for `CCN1C[C@]2(OC(=O)c3ccccc3NC(=O)c3ccc(Br)cc3)CC[C@H](OC)[C@]34C1[C@H](C[C@H]23)[C@@]1(O)C[C@H](OC)[C@H]2C[C@@H]4[C@]1(O)[C@H]2OC` was 39.4%.
On to `CCN1C[C@]2(OC(=O)c3ccccc3NC(=O)c3ccccc3Br)CC[C@H](OC)[C@]34C1[C@H](C[C@H]23)[C@@]1(O)C[C@H](OC)[C@H]2C[C@@H]4[C@]1(O)[C@H]2OC`, for which the inhibition in vivo at 10 mg/kg is 0%.
The result for `CCN1C[C@]2(OC(=O)c3ccccc3NC(=O)c3cnc(Cl)cn3)CC[C@H](OC)[C@]34C1[C@H](C[C@H]23)[C@@]1(O)C[C@H](OC)[C@H]2C[C@@H]4[C@]1(O)[C@H]2OC` reads 31.5%; that for `CCN1C[C@]2(OC(=O)c3ccccc3NC(=O)c3ccc(C)cc3C)CC[C@H](OC)[C@]34C1[C@H](C[C@H]23)[C@@]1(O)C[C@H](OC)[C@H]2C[C@@H]4[C@]1(O)[C@H]2OC`, 0%.
On to `CCN1C[C@]2(OC(=O)c3ccccc3NC(=O)C3CCCC3)CC[C@H](OC)[C@]34C1[C@H](C[C@H]23)[C@@]1(O)C[C@H](OC)[C@H]2C[C@@H]4[C@]1(O)[C@H]2OC`, for which the inhibition in vivo at 10 mg/kg is 56.9%.
The value for `CCN1C[C@]2(OC(=O)c3ccccc3NS(=O)(=O)CCCCl)CC[C@H](OC)[C@]34C1[C@H](C[C@H]23)[C@@]1(O)C[C@H](OC)[C@H]2C[C@@H]4[C@]1(O)[C@H]2OC` was 32.1%; that for `CCN1C[C@]2(OC(=O)c3ccccc3NC(=O)c3ccc(OC(F)(F)F)cc3)CC[C@H](OC)[C@]34C1[C@H](C[C@H]23)[C@@]1(O)C[C@H](OC)[C@H]2C[C@@H]4[C@]1(O)[C@H]2OC` was 10%.
The value for `CCN1C[C@]2(OC(=O)c3ccccc3NC(=O)c3cccc(Cl)c3)CC[C@H](OC)[C@]34C1[C@H](C[C@H]23)[C@@]1(O)C[C@H](OC)[C@H]2C[C@@H]4[C@]1(O)[C@H]2OC` was 17.5%.
The value for `CCN1C[C@]2(OC(=O)c3ccccc3NC(=O)c3ccc(Cl)cc3Cl)CC[C@H](OC)[C@]34C1[C@H](C[C@H]23)[C@@]1(O)C[C@H](OC)[C@H]2C[C@@H]4[C@]1(O)[C@H]2OC` was 31.2%; that for `CCN1C[C@]2(OC(=O)c3ccccc3NC(=O)c3ccccc3Cl)CC[C@H](OC)[C@]34C1[C@H](C[C@H]23)[C@@]1(O)C[C@H](OC)[C@H]2C[C@@H]4[C@]1(O)[C@H]2OC` was 4.4%.
With `CCN1C[C@]2(OC(=O)c3ccccc3NC(=O)c3ccccc3)CC[C@H](OC)[C@]34C1[C@H](C[C@H]23)[C@@]1(O)C[C@H](OC)[C@H]2C[C@@H]4[C@]1(O)[C@H]2OC`, the inhibition in vivo at 10 mg/kg was determined as 0%.
In the case of `CCN1C[C@]2(OC(=O)c3ccccc3NC(=O)c3ccccc3N(C)C)CC[C@H](OC)[C@]34C1[C@H](C[C@H]23)[C@@]1(O)C[C@H](OC)[C@H]2C[C@@H]4[C@]1(O)[C@H]2OC`, the inhibition in vivo at 10 mg/kg is 34.2%.
The value for `CCCCCCC(=O)Nc1ccccc1C(=O)O[C@@]12CC[C@H](OC)[C@]34C([C@H](C[C@H]13)[C@@]1(O)C[C@H](OC)[C@H]3C[C@@H]4[C@]1(O)[C@H]3OC)N(CC)C2` was 54.2%; that for `CCN1C[C@]2(OC(=O)c3ccccc3NS(=O)(=O)CC)CC[C@H](OC)[C@]34C1[C@H](C[C@H]23)[C@@]1(O)C[C@H](OC)[C@H]2C[C@@H]4[C@]1(O)[C@H]2OC` was 4%; that for `CCN1C[C@]2(OC(=O)c3ccccc3NC(=O)c3ccc(Br)s3)CC[C@H](OC)[C@]34C1[C@H](C[C@H]23)[C@@]1(O)C[C@H](OC)[C@H]2C[C@@H]4[C@]1(O)[C@H]2OC` was 12.8%.
Consider `CCN1C[C@]2(OC(=O)c3ccccc3NC(=O)c3ccc(Cl)cc3)CC[C@H](OC)[C@]34C1[C@H](C[C@H]23)[C@@]1(O)C[C@H](OC)[C@H]2C[C@@H]4[C@]1(O)[C@H]2OC`, for which the inhibition in vivo at 10 mg/kg was 31.6%.
The result for `CCN1C[C@]2(OC(=O)c3ccccc3NS(C)(=O)=O)CC[C@H](OC)[C@]34C1[C@H](C[C@H]23)[C@@]1(O)C[C@H](OC)[C@H]2C[C@@H]4[C@]1(O)[C@H]2OC` reads 22.8%.
The value for `CCN1C[C@]2(OC(=O)c3ccccc3NC(=O)c3cccc(Br)c3)CC[C@H](OC)[C@]34C1[C@H](C[C@H]23)[C@@]1(O)C[C@H](OC)[C@H]2C[C@@H]4[C@]1(O)[C@H]2OC` was 3.4%; that for `CCN1C[C@]2(OC(=O)c3ccccc3NC(=O)C3CCCO3)CC[C@H](OC)[C@]34C1[C@H](C[C@H]23)[C@@]1(O)C[C@H](OC)[C@H]2C[C@@H]4[C@]1(O)[C@H]2OC` (stereo partly drawn) was 21.8%; that for `CCN1C[C@]2(OC(=O)c3ccccc3NC(=O)c3ccc([N+](=O)[O-])cc3)CC[C@H](OC)[C@]34C1[C@H](C[C@H]23)[C@@]1(O)C[C@H](OC)[C@H]2C[C@@H]4[C@]1(O)[C@H]2OC` was 27.2%.
The result for `CCCOc1ccccc1C(=O)Nc1ccccc1C(=O)O[C@@]12CC[C@H](OC)[C@]34C([C@H](C[C@H]13)[C@@]1(O)C[C@H](OC)[C@H]3C[C@@H]4[C@]1(O)[C@H]3OC)N(CC)C2` reads 19.2%; that for `CCN1C[C@]2(OC(=O)c3ccccc3NC(=O)C3CCCCC3)CC[C@H](OC)[C@]34C1[C@H](C[C@H]23)[C@@]1(O)C[C@H](OC)[C@H]2C[C@@H]4[C@]1(O)[C@H]2OC`, 34.5%; that for `CCN1C[C@]2(OC(=O)c3ccccc3NC(=O)c3ccc(Cl)c(Cl)c3)CC[C@H](OC)[C@]34C1[C@H](C[C@H]23)[C@@]1(O)C[C@H](OC)[C@H]2C[C@@H]4[C@]1(O)[C@H]2OC`, 10.4%.
As to `CCc1ccc(C(=O)Nc2ccccc2C(=O)O[C@@]23CC[C@H](OC)[C@]45C([C@H](C[C@H]24)[C@@]2(O)C[C@H](OC)[C@H]4C[C@@H]5[C@]2(O)[C@H]4OC)N(CC)C3)cc1`, the inhibition in vivo at 10 mg/kg stood at 26.7%.
The result for `CCN1C[C@]2(OC(=O)c3ccccc3NC(=O)c3cccc(C)c3)CC[C@H](OC)[C@]34C1[C@H](C[C@H]23)[C@@]1(O)C[C@H](OC)[C@H]2C[C@@H]4[C@]1(O)[C@H]2OC` reads 36.9%; that for `CCN1C[C@]2(OC(=O)c3ccccc3NC(=O)c3ccc(C#N)cc3)CC[C@H](OC)[C@]34C1[C@H](C[C@H]23)[C@@]1(O)C[C@H](OC)[C@H]2C[C@@H]4[C@]1(O)[C@H]2OC`, 31.5%; that for `CCCCc1ccc(C(=O)Nc2ccccc2C(=O)O[C@@]23CC[C@H](OC)[C@]45C([C@H](C[C@H]24)[C@@]2(O)C[C@H](OC)[C@H]4C[C@@H]5[C@]2(O)[C@H]4OC)N(CC)C3)cc1`, 28.2%.
Consider `CCN1C[C@]2(OC(=O)c3ccccc3NC(=O)c3ccc(Cl)s3)CC[C@H](OC)[C@]34C1[C@H](C[C@H]23)[C@@]1(O)C[C@H](OC)[C@H]2C[C@@H]4[C@]1(O)[C@H]2OC`, for which the inhibition in vivo at 10 mg/kg was found to be 27.8%.
The result for `CCN1C[C@]2(OC(=O)c3ccccc3NC(=O)C3CCOC3)CC[C@H](OC)[C@]34C1[C@H](C[C@H]23)[C@@]1(O)C[C@H](OC)[C@H]2C[C@@H]4[C@]1(O)[C@H]2OC` (stereo partly drawn) reads 34%; that for `CCN1C[C@]2(OC(=O)c3ccccc3NC(=O)c3ccc(OC)c(OC)c3)CC[C@H](OC)[C@]34C1[C@H](C[C@H]23)[C@@]1(O)C[C@H](OC)[C@H]2C[C@@H]4[C@]1(O)[C@H]2OC`, 34.6%.
The value for `CCN1C[C@]2(OC(=O)c3ccccc3NC(=O)c3ccc(S(C)(=O)=O)cc3)CC[C@H](OC)[C@]34C1[C@H](C[C@H]23)[C@@]1(O)C[C@H](OC)[C@H]2C[C@@H]4[C@]1(O)[C@H]2OC` was 8.4%; that for `CCN1C[C@]2(OC(=O)c3ccccc3NC(=O)c3ccc(C(C)C)cc3)CC[C@H](OC)[C@]34C1[C@H](C[C@H]23)[C@@]1(O)C[C@H](OC)[C@H]2C[C@@H]4[C@]1(O)[C@H]2OC` was 21%.
On to `CCN1C[C@]2(OC(=O)c3ccccc3NC(=O)c3ccc(C(=O)OC)cc3)CC[C@H](OC)[C@]34C1[C@H](C[C@H]23)[C@@]1(O)C[C@H](OC)[C@H]2C[C@@H]4[C@]1(O)[C@H]2OC`, for which the inhibition in vivo at 10 mg/kg came out at 36.4%.
The result for `CCN1C[C@]2(OC(=O)c3ccccc3NC(=O)c3cccc(F)c3)CC[C@H](OC)[C@]34C1[C@H](C[C@H]23)[C@@]1(O)C[C@H](OC)[C@H]2C[C@@H]4[C@]1(O)[C@H]2OC` reads 27.5%.
The result for `CCN1C[C@]2(OC(=O)c3ccccc3NC(=O)c3ccc(I)cc3)CC[C@H](OC)[C@]34C1[C@H](C[C@H]23)[C@@]1(O)C[C@H](OC)[C@H]2C[C@@H]4[C@]1(O)[C@H]2OC` reads 31.1%.
